Source: US20260041683A1, “Compounds with Anti-Acinetobacter Baumannii Activity” (University of Kentucky Research Foundation, priority 2022, published 2026)
≈ marks a conversion by molar mass, not a printed value. Read-outs that look alike come from different tables or passages of the source.

What was measured:
[1] = tested on: all 43 strains of A. baumannii (41 CDC strains and 2 ATCC strains); test: MIC value statistics for all A. baumannii strains; assay type: cell-based, Acinetobacter baumannii; conditions: of 43 A. baumannii strains
Procedure: All bacterial strains listed above were stored at −80° C. All strains were streaked on Mueller-Hinton (MH) plates and allowed to grow at 37° C. overnight. Enough colonies were scraped from the plate and suspended in MH broth with vortexing to reach an attenuance at 600 nm (OD600) of ˜0.5. The resulting culture was diluted 1:1000 and added to the prepared serially doubly diluted compound solutions in 96-well plates. […]. For each row, one well was reserved for sterile control (which consisted of 200 μL of MH medium) and another well was reserved for growth control (which consisted of 100 μL of MH medium seeded with 100 μL of bacterial culture).
Having established that the observed activity is selective to A. baumannii, all synthesized compounds were tested against a panel of antibiotic resistant A. baumannii from the Antimicrobial Resistant (AR) Isolate Bank from the CDC along with strains I and J (Table Si). […]. Based on this statistical analysis, the best compound is 5e followed closely by 3e.

B. anthracis Sterne F32 = test: microbe, parasite or virus in culture; assay type: cell-based; conditions: Bacillus anthracis, STERNEF32, read-out: MIC strain A
S. aureus ATCC 25923 = test: MIC determination; assay type: cell-based; conditions: Staphylococcus aureus, ATCC25923; Table 5; Mueller-Hinton medium; B = S. aureus ATCC 25923; read-out: MIC strain B
E. cloacae ATCC 13047 = test: MIC determination; assay type: cell-based; conditions: Enterobacter cloacae, ATCC13047; Table 5; Mueller-Hinton medium; E = E. cloacae ATCC 13047; read-out: MIC strain E
Gram-negative bacteria = test: MIC determination, panel statement; assay type: cell-based; conditions: moderate activity
Ab ATCC 19606 (strain I) = test: MIC determination (double dilution, Mueller-Hinton broth); assay type: cell-based, Acinetobacter baumannii; conditions: Acinetobacter baumannii, ATCC19606
Procedure: All bacterial strains listed above were stored at −80° C. All strains were streaked on Mueller-Hinton (MH) plates and allowed to grow at 37° C. overnight. […] The resulting culture was diluted 1:1000 and added to the prepared serially doubly diluted compound solutions in 96-well plates. For M. smegmatis, a 1:100 dilution of the bacteria was done in MH. All MIC values were determined using 96-well plates with low evaporation seals at least in duplicate. For each row, one well was reserved for sterile control (which consisted of 200 μL of MH medium) and another well was reserved for growth control (which consisted of 100 μL of MH medium seeded with 100 μL of bacterial culture).
(§1) Minimum inhibitory concentrations (MIC) of all compounds from the series were measured in liquid cultures of different Ab strains by a double-dilution method in Mueller-Hinton broth. Initially, the activity of all 46 compounds against Ab ATCC 19606 (a control strain) and Ab ATCC BAA1605 (a multidrug-resistant strain) (Table 1; data shown for 27 representative compounds) was measured.

[2] = tested on: Ab ATCC BAA1605 (strain J, multidrug-resistant); test: MIC determination; assay type: cell-based; conditions: Acinetobacter baumannii
Procedure: All bacterial strains listed above were stored at −80° C. All strains were streaked on Mueller-Hinton (MH) plates and allowed to grow at 37° C. overnight. Enough colonies were scraped from the plate and suspended in MH broth with vortexing to reach an attenuance at 600 nm (OD600) of ˜0.5. The resulting culture was diluted 1:1000 and added to the prepared serially doubly diluted compound solutions in 96-well plates. For M. smegmatis, a 1:100 dilution of the bacteria was done in MH. All MIC values were determined using 96-well plates with low evaporation seals at least in duplicate. For each row, one well was reserved for sterile control (which consisted of 200 μL of MH medium) and another well was reserved for growth control (which consisted of 100 μL of MH medium seeded with 100 μL of bacterial culture).
as §1

K. pneumoniae ATCC 27736 = test: MIC determination; assay type: cell-based; conditions: Klebsiella pneumoniae, ATCC27736; Table 5; Mueller-Hinton medium; F = K. pneumoniae ATCC 27736; read-out: MIC strain F
E. coli MC1061 = test: MIC determination; assay type: cell-based; conditions: Escherichia coli; Table 5; Mueller-Hinton medium; D = E. coli MC1061; read-out: MIC strain D
S. enterica ATCC 14028 = test: MIC determination; assay type: cell-based; conditions: Salmonella enterica, ATCC14028; Table 5; Mueller-Hinton medium; H = S. enterica ATCC 14028; read-out: MIC strain H
[3] = tested on: S. epidermidis ATCC 12228; test: MIC determination; assay type: cell-based; conditions: Staphylococcus epidermidis, ATCC12228; Table 5; Mueller-Hinton medium; C = S. epidermidis ATCC 12228; read-out: MIC strain C
P. aeruginosa ATCC 27853 = test: MIC determination; assay type: cell-based; conditions: Pseudomonas aeruginosa, ATCC27853; Table 5; Mueller-Hinton medium; G = P. aeruginosa ATCC 27853; read-out: MIC strain G
[4] = Table 1, control strain, read-out: MIC Ab ATCC 19606
[5] = Table 5, Mueller-Hinton medium, I = A. baumannii ATCC 19606, read-out: MIC strain I
[6] = Table 1, multidrug-resistant strain, read-out: MIC Ab ATCC BAA 1605
[7] = Table 5, Mueller-Hinton medium, J = A. baumannii BAA1605, read-out: MIC strain J

| Structure (SMILES) | number of compound/strain combinations with MIC value 0.25 μg/mL [1] | number of compound/strain combinations with MIC value 0.5 μg/mL [1] | number of compound/strain combinations with MIC value 1 μg/mL [1] | number of compound/strain combinations with MIC value ≤0.125 μg/mL [1] | MIC (B. anthracis Sterne F32) [µg/mL] | MIC (S. aureus ATCC 25923) [µg/mL] | MIC (E. cloacae ATCC 13047) [µg/mL] | MIC (Ab ATCC 19606 (strain I); [4]) [µg/mL] | MIC (Ab ATCC 19606 (strain I); [5]) [µg/mL] | MIC [2, 6] [µg/mL] | MIC [2, 7] [µg/mL] | MIC (K. pneumoniae ATCC 27736) [µg/mL] | MIC (E. coli MC1061) [µg/mL] | MIC (S. enterica ATCC 14028) [µg/mL] | MIC [3] [µg/mL] | MIC (P. aeruginosa ATCC 27853) [µg/mL] | also measured |
| --- | --- | --- | --- | --- | --- | --- | --- | --- | --- | --- | --- | --- | --- | --- | --- | --- | --- |
| O=C(NNc1ccc(Cl)cc1)c1ccc(F)cc1F [Compound 1e] | 17 | 12 | 5 | 8 | > 64 | > 64 | 16 (≈ 56.6 µM) | 0.25 (≈ 0.884 µM) | 0.25 (≈ 0.884 µM) | 0.25 (≈ 0.884 µM) | 0.25 (≈ 0.884 µM) | > 64 | 16 (≈ 56.6 µM) | > 64 | > 64 | > 64 | number of compound/strain combinations with MIC value 2 μg/mL [1]: 1; MIC (Gram-negative bacteria): 4 to 16 µg/mL (≈ 14.2 to 56.6 µM) |
| COc1ccc(NNC(=O)c2ccc(F)cn2)cc1 [Compound 3f] | 1 | 2 | 9 |  | > 64 | > 64 | > 64 | 1 (≈ 3.83 µM) | 1 (≈ 3.83 µM) | 0.5 (≈ 1.91 µM) | 0.5 (≈ 1.91 µM) | > 64 | > 64 | > 64 | > 64 | > 64 | number of compound/strain combinations with MIC value 2 μg/mL [1]: 19; number of compound/strain combinations with MIC value 4 μg/mL [1]: 11; number of compound/strain combinations with MIC value 8 μg/mL [1]: 1 |
| O=C(NNc1ccc(Cl)cc1)c1ccc2ccccc2n1 [Compound 12e] | 7 | 19 | 17 |  | > 64 | > 64 | > 64 | 0.5 (≈ 1.68 µM) | 0.5 (≈ 1.68 µM) | 0.5 (≈ 1.68 µM) | 0.5 (≈ 1.68 µM) | > 64 | 16 (≈ 53.7 µM) | > 64 | > 64 | > 64 |  |
| CCOC(=O)CNNC(=O)c1ccc2ccccc2n1 [Compound 12g] |  |  |  |  | > 64 | > 64 | > 64 |  | > 64 |  | > 64 | > 64 | > 64 | > 64 | > 64 | > 64 | number of compound/strain combinations with MIC value >64 μg/mL [1]: 43 |
| O=C(NNC1CCCCC1)c1ccc2ccccc2n1 [Compound 12h] |  |  |  |  | > 64 | > 64 | > 64 |  | > 64 |  | > 64 | > 64 | 64 (≈ 238 µM) | > 64 | > 64 | > 64 | number of compound/strain combinations with MIC value >64 μg/mL [1]: 43 |
| O=C(NNc1ccc(Cl)cc1)c1cc2ccccc2[nH]1 [Compound 14e] | 18 | 20 | 2 | 3 | > 64 | > 64 | > 64 |  | 0.5 (≈ 1.75 µM) |  | 0.25 (≈ 0.875 µM) | > 64 | > 64 | > 64 | > 64 | > 64 |  |
| O=C(NNc1ccc(Cl)cc1)c1ccco1 [Compound 15e] | 18 | 10 | 2 | 13 | > 64 | 64 (≈ 270 µM) | 4 (≈ 16.9 µM) | 0.5 (≈ 2.11 µM) | 0.5 (≈ 2.11 µM) | ≤ 0.125 | ≤ 0.125 | 16 (≈ 67.6 µM) | 16 (≈ 67.6 µM) | 16 (≈ 67.6 µM) | 64 (≈ 270 µM) | > 64 |  |
| CCC(=O)NNc1ccc(Cl)cc1 [Compound 16e] | 17 | 10 | 1 | 15 | > 64 | > 64 | 16 (≈ 80.5 µM) | ≤ 0.25 | ≤ 0.125 | ≤ 0.125 | ≤ 0.125 | 16 (≈ 80.5 µM) | 16 (≈ 80.5 µM) | 64 (≈ 322 µM) | > 64 | > 64 |  |
| C=CC(=O)NNc1ccc(Cl)cc1 [Compound 17e] | 21 | 13 |  | 9 | > 64 | 64 (≈ 325 µM) | 16 (≈ 81.4 µM) | 0.25 (≈ 1.27 µM) | 0.25 (≈ 1.27 µM) | 0.25 (≈ 1.27 µM) | 0.25 (≈ 1.27 µM) | 16 (≈ 81.4 µM) | 16 (≈ 81.4 µM) | 16 (≈ 81.4 µM) | 64 (≈ 325 µM) | > 64 |  |
